What was measured:
[1] = test system: AKT; test: AKT signaling immunoblot, 293T cells; assay type: cell-based
Method: Cellular reagents were purchased from various commercial vendors. Primary human umbilical vein endothelial cells (HUVECs) were obtained from Cell Applications Inc. and cultured according to the manufacture's recommendations. Primary human coronary artery smooth muscle cells were obtained from Invitrogen and were cultured according to the manufacture's recommendations. 293T cells were obtained from ATCC and were cultured according to the manufacture's recommendations. Mouse primary smooth muscle cells were obtained and cultured as described previously. Predesigned Silencer Select siRNA constructs targeting Pearl 1 and negative control siRNA were obtained from ThermoFisher. Transfections were performed using RNAiMAX or Lipofectamine 3000 transfection reagents according to the manufacturer's protocols. Cells were used for signaling assays 48 hours after transfection; efficient Pearl 1 knockdown or Pearl 1 overexpression was confirmed by immunoblot assays.
Prior to performing signaling assays, cells were trypsinized, centrifuged, suspended in basal media, and counted using an automated hemocytometer. Cells were further diluted in basal media to an assay-dependent concentration. […] Protein content was determined using a bicinchoninic acid assay with BSA standards (#23225, Pierce BCA Protein Assay Kit). […]

[2] = test system: VSMCs; test: VSMC adhesion assay; assay type: cell-based, mouse; details: immobilized protein
Excerpt: Plates were ultraviolet (UV) sterilized before adding cells. […] Efficient Itgα9 knockdown was confirmed by qPCR.

[3] = test system: AKT; test: AKT signaling immunoblot, platelets; assay type: cell-based, human; details: platelets, vs BSA
Method: Prior to performing signaling assays, cells were trypsinized, centrifuged, suspended in basal media, and counted using an automated hemocytometer. Cells were further diluted in basal media to an assay-dependent concentration. Cells were then incubated with gentle agitation for 60 minutes to prevent cell attachment and reduce basal signaling. PP1, Dynasore, MK-2206, and Rapamycin were diluted in DMSO and used in assay concentrations of 10 μM, 100 μM, 10 μM, and respectively, for the final 20-30 minutes of incubation in basal media. An equal volume of DMSO was used as the negative control condition. […] 1 μg Pearl 1 polyclonal antibody was added as a specific positive control. 20% growth media or 2% fetal bovine serum, labeled “Serum” in figures, was added as a non-specific positive control. The cells were centrifuged at 300G for 3 minutes with the exception of platelets, which were centrifuged at 500G for 5 minutes. The cells were then incubated at 37° C. for 8-45 minutes, depending on the cell type and pathway of interest. The cells were lysed in radioimmunoprecipitation buffer (RIPA) containing a cocktail of protease and phosphatase inhibitors and universal nuclease. Immunoblots were performed by standard techniques, as briefly follows. Protein content was determined using a bicinchoninic acid assay with BSA standards (#23225, Pierce BCA Protein Assay Kit). Cell lysates were then reduced with dithiothreitol (DTT) in lithium dodecyl sulfate (LDS) sample buffer (#NP0007, Invitrogen). Equal protein amounts were added to polyacrylamide gels (#4561086, BioRad) and electrophoresed prior to transferring to a nitrocellulose or polyvinylidene fluoride membrane (#1620260, BioRad). Membranes were blocked in 5% BSA/Tris-buffered saline (TBS) with 0.1% Tween 20 for 30 minutes. The indicated primary antibodies were incubated with the pre-blocked membranes overnight at 4° C. Membranes were washed with TBS with 0.1% Tween 20, probed with fluorescent secondary antibodies, and imaged. β-actin or β-tubulin served as a loading control.
Whole blood was collected by venipuncture into either heparin vacutainers (BD, Franklin Lakes) for whole blood experiments or acid-citrate-dextrose (ACD) vacutainers (BD, Franklin Lakes) for platelet isolation studies. For platelet isolation, samples were supplemented with apyrase (Sigma, St Louis) and prostaglandin E1 (Cayman Chemical, Ann Arbor), and platelet-rich plasma (PRP) was prepared by centrifugation of the ACD whole blood for 20 minutes at 200G. Platelets were isolated from the PRP by centrifugation for 10 minutes at 1000G and resuspended in modified Tyrode's buffer twice at desired platelet counts and kept at 37° C. until used. Isolated platelets were used within 2 hours of preparation.

[4] = molecular target: T1, Pearl 1 (Homo sapiens, UniProt Q5VY43); test: Pearl 1 immunoprecipitation and pTyrosine immunoblot, platelets; assay type: cell-based; details: 15 minutes exposure, vs BSA
T1 construct: endogenous in cells; host or cells: freshly isolated human platelets
T1 sequence (Q5VY43 21-1037): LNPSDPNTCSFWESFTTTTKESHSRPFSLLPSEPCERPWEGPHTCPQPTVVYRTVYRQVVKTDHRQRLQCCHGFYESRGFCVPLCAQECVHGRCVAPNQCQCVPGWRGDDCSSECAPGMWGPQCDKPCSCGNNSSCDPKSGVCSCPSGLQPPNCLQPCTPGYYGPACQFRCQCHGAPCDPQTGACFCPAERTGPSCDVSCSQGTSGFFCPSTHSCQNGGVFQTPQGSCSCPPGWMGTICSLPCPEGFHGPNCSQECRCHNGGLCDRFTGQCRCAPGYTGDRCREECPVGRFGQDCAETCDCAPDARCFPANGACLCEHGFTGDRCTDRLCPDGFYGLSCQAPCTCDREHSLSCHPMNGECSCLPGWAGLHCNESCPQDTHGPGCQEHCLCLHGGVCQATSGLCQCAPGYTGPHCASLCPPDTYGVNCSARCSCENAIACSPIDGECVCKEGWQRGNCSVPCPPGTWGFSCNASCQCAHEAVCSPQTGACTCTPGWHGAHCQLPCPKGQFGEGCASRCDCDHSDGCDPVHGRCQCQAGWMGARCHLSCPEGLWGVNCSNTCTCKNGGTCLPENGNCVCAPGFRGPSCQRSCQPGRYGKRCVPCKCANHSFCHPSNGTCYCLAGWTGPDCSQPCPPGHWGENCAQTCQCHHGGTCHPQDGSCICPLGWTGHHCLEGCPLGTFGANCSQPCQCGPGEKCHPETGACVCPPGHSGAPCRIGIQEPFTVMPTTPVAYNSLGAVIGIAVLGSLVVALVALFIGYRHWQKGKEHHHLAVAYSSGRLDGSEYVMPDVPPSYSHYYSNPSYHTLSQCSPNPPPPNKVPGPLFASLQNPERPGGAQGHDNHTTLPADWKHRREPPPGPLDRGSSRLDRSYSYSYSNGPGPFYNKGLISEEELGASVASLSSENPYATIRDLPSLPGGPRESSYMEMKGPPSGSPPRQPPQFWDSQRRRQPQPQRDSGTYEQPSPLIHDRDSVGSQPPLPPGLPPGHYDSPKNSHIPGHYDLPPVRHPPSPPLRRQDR
Method: Subsequently, 204, of BSA-blocked Invitrogen Protein A Dynabeads slurry was added, followed by rotation for 45 minutes. The beads were separated using magnetism and washed with RIPA buffer 4-5 times, then resuspended with reducing LDS sample buffer and analyzed by immunoblot assay. Bands for p-tyrosine and Pearl 1 were detected at ˜140 kDa.
Prior to performing signaling assays, cells were trypsinized, centrifuged, suspended in basal media, and counted using an automated hemocytometer. Cells were further diluted in basal media to an assay-dependent concentration. Cells were then incubated with gentle agitation for 60 minutes to prevent cell attachment and reduce basal signaling. PP1, Dynasore, MK-2206, and Rapamycin were diluted in DMSO and used in assay concentrations of 10 μM, 100 μM, 10 μM, and respectively, for the final 20-30 minutes of incubation in basal media. An equal volume of DMSO was used as the negative control condition. […] 1 μg Pearl 1 polyclonal antibody was added as a specific positive control. 20% growth media or 2% fetal bovine serum, labeled “Serum” in figures, was added as a non-specific positive control. The cells were centrifuged at 300G for 3 minutes with the exception of platelets, which were centrifuged at 500G for 5 minutes. […] Protein content was determined using a bicinchoninic acid assay with BSA standards (#23225, Pierce BCA Protein Assay Kit). […]

[5] = molecular target: Fibronectin (Mus musculus, UniProt P11276); details: enriched VSMC media
Chain of Fibronectin (P11276 33-2477): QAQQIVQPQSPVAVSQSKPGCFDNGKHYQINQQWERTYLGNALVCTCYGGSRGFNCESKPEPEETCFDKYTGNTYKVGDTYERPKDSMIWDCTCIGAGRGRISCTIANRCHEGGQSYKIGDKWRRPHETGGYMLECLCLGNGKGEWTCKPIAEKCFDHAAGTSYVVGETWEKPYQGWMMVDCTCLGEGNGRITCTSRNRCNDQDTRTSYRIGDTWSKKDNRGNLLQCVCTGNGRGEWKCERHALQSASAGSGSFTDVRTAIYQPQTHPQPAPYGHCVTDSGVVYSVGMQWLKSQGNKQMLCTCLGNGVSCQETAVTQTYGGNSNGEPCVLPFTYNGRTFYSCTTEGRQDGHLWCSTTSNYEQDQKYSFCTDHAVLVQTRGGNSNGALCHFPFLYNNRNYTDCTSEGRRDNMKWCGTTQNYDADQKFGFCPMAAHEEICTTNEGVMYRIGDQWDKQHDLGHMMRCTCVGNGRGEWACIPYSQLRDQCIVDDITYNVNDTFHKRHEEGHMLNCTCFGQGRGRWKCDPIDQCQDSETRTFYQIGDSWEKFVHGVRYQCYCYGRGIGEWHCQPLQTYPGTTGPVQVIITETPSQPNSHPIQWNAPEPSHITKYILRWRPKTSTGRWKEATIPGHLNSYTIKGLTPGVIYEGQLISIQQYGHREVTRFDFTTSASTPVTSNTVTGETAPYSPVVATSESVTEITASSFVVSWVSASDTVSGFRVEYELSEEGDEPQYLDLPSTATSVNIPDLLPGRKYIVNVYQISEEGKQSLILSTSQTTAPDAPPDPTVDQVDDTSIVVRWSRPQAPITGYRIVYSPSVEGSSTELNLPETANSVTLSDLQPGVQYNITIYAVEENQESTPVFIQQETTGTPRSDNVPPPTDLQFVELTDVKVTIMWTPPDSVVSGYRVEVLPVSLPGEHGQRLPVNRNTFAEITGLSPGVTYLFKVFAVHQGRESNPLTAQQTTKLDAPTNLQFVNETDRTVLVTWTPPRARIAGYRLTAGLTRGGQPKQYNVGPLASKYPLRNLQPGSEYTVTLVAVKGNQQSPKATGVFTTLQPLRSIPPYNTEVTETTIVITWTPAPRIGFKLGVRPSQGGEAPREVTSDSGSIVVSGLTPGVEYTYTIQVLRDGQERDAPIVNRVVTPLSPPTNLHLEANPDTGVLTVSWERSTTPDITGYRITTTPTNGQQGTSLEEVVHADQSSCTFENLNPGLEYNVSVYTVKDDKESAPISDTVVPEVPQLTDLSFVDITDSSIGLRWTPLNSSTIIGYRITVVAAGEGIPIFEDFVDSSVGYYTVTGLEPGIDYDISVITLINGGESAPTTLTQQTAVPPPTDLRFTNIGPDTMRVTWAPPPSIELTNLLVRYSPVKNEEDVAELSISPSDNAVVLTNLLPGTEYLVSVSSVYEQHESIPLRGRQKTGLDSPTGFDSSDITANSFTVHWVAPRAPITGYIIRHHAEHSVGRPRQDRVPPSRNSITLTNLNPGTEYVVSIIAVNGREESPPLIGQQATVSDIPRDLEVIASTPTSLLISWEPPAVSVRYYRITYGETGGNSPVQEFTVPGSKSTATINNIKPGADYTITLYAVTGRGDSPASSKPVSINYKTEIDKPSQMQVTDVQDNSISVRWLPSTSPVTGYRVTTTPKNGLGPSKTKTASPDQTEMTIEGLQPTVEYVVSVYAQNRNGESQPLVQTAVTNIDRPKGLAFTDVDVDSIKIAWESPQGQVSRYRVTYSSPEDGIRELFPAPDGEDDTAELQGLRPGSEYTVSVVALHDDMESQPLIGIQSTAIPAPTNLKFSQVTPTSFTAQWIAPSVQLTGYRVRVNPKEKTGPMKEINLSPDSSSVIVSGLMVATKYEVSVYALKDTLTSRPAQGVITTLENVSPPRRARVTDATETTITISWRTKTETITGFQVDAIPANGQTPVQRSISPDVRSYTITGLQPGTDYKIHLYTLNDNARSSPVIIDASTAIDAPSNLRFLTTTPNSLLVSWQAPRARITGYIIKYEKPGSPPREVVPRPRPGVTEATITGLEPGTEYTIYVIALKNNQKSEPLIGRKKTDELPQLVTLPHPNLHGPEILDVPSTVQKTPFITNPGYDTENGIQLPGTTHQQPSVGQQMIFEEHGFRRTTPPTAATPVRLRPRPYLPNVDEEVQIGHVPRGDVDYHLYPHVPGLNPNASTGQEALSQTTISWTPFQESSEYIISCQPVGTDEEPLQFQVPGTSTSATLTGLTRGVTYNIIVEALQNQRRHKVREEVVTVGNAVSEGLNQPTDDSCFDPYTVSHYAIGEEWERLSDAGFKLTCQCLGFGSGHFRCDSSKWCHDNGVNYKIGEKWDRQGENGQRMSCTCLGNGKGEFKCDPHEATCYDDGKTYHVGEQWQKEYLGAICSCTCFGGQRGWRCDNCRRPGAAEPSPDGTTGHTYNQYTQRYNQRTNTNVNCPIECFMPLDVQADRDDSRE
Method: Affinity-based proteomics: Murine VSMCs were grown to confluence in serum-containing media and changed to serum-free media to generate enriched media. […] An aliquot was removed after incubation as the “input” fraction. Media was then added to a slurry of Pierce Anti-c-Myc Magnetic Beads+0.05% Tween 20 and incubated for 30 minutes while rocking at 4° C. The beads were then washed twice with Ca^2+ and Mg^2+-containing PBS (D8662, Sigma) +0.05% Tween 20 and twice with Ca^2+ and Mg^2+-containing PBS before a final resuspension in PBS. An aliquot of the beads was reserved as the pulldown fraction for validation. […] The samples were incubated for 4 hours prior to dialysis. Protease arrest (G-Biosciences) was added and excess biotin was dialyzed using a 10 kDa molecular weight cut-off (MWKO) Slide-A-Lyzer™ dialysis Cassette (ThermoFisher Scientific) in buffered saline+1 mM EDTA. The samples were then transferred to 10 kDa MWKO Vivasin column (Sartorius Stedim Biotech), centrifuged, resuspended in RIPA buffer, centrifuged, and added to pre-washed Pierce Streptavidin Magnetic Beads. The samples and beads were incubated for 1 hour at room temperature or overnight at 4° C. and then washed with the following solutions: RIPA buffer, 1M 732 KCl, 0.1M Na2CO3, 2M urea in 10 mM Tris HCl (pH=8.0), and PBS. The beads were then resuspended in PBS for peptide preparation.

## SVEP1: recombinant murine SVEP1 extracellular matrix protein with Myc and poly-histidine tag, expressed in 293F cells
[1]; 293T cells transfected with Pearl 1-expression plasmid (constitutive AKT activation)
  pAKT levels: no additional effect on pAKT levels
[1]; 293T cells, which lack Pearl 1
  AKT activation: Neither SVEP1 nor Pearl 1 pAb activated AKT
[2]
  adhesion of VSMCs: adhere to SVEP1 in a dose-dependent manner
[3]
  AKT phosphorylation (pAKT): induced AKT phosphorylation
[4]
  phospho-tyrosine signal of Pearl 1 (140 kDa): robust phospho-tyrosine signal
[5]
  pulldown of Fibronectin: confirmed
